Experimental data taken from US10845371B2, “Soluble MANF in pancreatic beta-cell disorders” (University of Massachusetts, priority 2012, dated 2020).
Ends that are not written are not given here. Peptide text beside a SMILES is read from it. * marks the point of attachment. Cbz = O=C(OCc1ccccc1)*

How the values were obtained:
[1] = test system: MEROS-GFP (ER redox state) in INS-1 832/13 cells; experiment: MEROS-GFP ratio by flow cytometry in INS-1 832/13 cells; format: cell-based, rat; conditions: for Median MEROS-GFP ratio (FACS): normalized to untreated, DTT 0.2-10 mM, 1 mM H2O2 30 min, TM 5 μM, TG 10 nM 24 h or 1 μM 4 h, BreA 100 ng/mL, MG132, palmitate 0.2-0.5 mM, hIAPP 10 μM, 24 h, FIGS. 17-24
Description: FIG. 15 is fluorescence-assisted cell sorting (FACS) data of INS-1 832/13 cells stably-transfected with MEROS-GFP following no treatment or treatment with DTT (0.2, 0.5, or 10 mM DTT). The data was collected using excitation wavelengths of 488 nm and 405 nm, and an emission spectrum of 510 nm.
FIG. 16 is a histogram of FACS data of INS-1 832/13 cells stably-transfected with MEROS-GFP following no treatment or treatment with DTT (0.2 mM, 0.5 mM, or 10 mM DTT). The horizontal axis represents the MEROS-GFP ratio and the vertical axis represents the number of cells.
FIG. 17 is a graph of the median MEROS-GFP ratio in INS-1 832/13 cells stably-transfected with MEROS-GFP following no treatment or treatment with DTT (0.2, 0.5, or 10 mM DTT). The MEROS-GFP values shown are normalized to the untreated values.
FIG. 18 is two graphs showing data from FACS analysis of INS-1 832/13 cells stably-transfected with MEROS-GFP following no treatment or treatment with 1 mM H2O2 for 30 minutes. The right graph is a histogram of the MEROS-GFP ratio in INS-1 832/13 cells not treated or treated with 1 mM H202.
FIG. 19 is a graph of the median MEROS-GFP ratio calculated in INS-1 832/13 cells using FACS analysis following no treatment or treatment with tunicamycin (TM) (5 μM; 24 hours), thapsigargin (TG) (10 nM; 24 hours), TG (1 μM; 4 hours), brefeldin A (BreA) (100 ng/mL; 24 hours), or MG132 ([…]; 24 hours). […] The data are normalized to the median MEROS-GFP ratio calculated for the untreated cells.
The error bars represent ±S.D. The data are normalized to the median MEROS-GFP ratio calculated for the untreated cells.
FIG. 24 is a graph of the median MEROS-GFP ratio in INS-1 832/13 cells left untreated or treatment with human islet amyloid polypeptide (IAPP) (10 μM; 24 hours), mouse IAPP (10 μM; 24 hours), or cytokines ([…] (5 ng/mL), INFγ (100 ng/mL), and TNFα (25 ng/mL); 24 hours)). The error bars represent ±S.D. The data are normalized to the median MEROS-GFP ratio calculated for the untreated cells.
Flow cytometry was used to precisely monitor the MEROS-GFP ratio in vivo.
Experiments were performed to study the relationship between the UPR and the heterogeneity of the redox state. In these experiments, both the redox state and the activation levels of the UPR were monitored in the same cells. To achieve this, a UPR reporter gene encoding the red fluorescent protein, mCherry, driven by the human BiP promoter was constructed. […] This BiP-mCherry reporter plasmid was transfected into INS-1 832/13 cells expressing MEROS-GFP, and FACS analysis was used to monitor the MEROS-GFP ratio and the activation levels of the UPR via BiP-mCherry in the same cells (FIG. 31). The activation levels of BiP-mCherry and the MEROS-GFP ratio were monitored following the induction of ER stress. In these experiments, INS-1 832/13 cells expressing MEROS-GFP were plated onto 6-well plates, treated with each compound for indicated times, and then harvested by trypsinization. After washing with phosphate buffered saline, cells were resuspended in the 11 mM glucose-Hanks buffered salt solution. Flow cytometry analyses were performed with LSRII (BD).

[2] = test system: MEROS-GFP (ER redox state) in NSC34 cells; experiment: Time course of MEROS-GFP ratio in NSC34 cells; format: cell-based; conditions: 1 mM DTT for 10 minutes, then wash, FIG. 14
Description: FIG. 14 is a graph showing a time course of the MEROS-GFP ratio in NSC34 cells that are treated with 1 mM DTT for 10 minutes, and then washed. The MEROS-GFP ratio was calculated at each minute interval between one minute prior to treatment to four minutes after the wash. The bottom line represents the fluorescence observed with excitation at 473 nm, the black line represents the MEROS-GFP ratio, and the light grey line represents the fluorescence with excitation at 394 nm (n=3; S.D.).
The MEROS-GFP ratio was also monitored in DTT-treated cells at different time points.

[3] = test system: MEROS-GFP (ER redox state) in INS-1 832/13 cells; experiment: MEROS-GFP pilot screen of 1280-compound library and follow-up screens; format: cell-based, rat; conditions: 0.2 mM DTT challenge for 2 hours, 96-well plates; untreated 0.037
Description: A pilot screen of a 1280-compound library (MicroSource), a collection of 1,040 U.S. drugs and 240 international drugs (FIG. 39) was performed. In this experiment, INS-1 832/13 cells stably-expressing MEROS-GFP were seeded (20,000 cells/well) in black optical 96-well plates. After 24 hours, 2 μL of each compound was added using the TeMo liquid handling robot. After another 24 hours, cells were challenged with 0.2 mM DTT, a strong reducing agent, for 2 hours, and then the MEROS-GFP ratio was calculated.

[4] = test system: MEROS-GFP (ER redox state) in INS-1 832/13 cells; experiment: MEROS-GFP ratio by fluorescent plate reader in INS-1 832/13 cells; format: cell-based, rat; conditions: 30 minutes; H2O2 0.1 or 1 mM, DTT 0.1-10 mM, FIG. 12
Description: FIG. 12 is a graph of the MEROS-GFP ratio in INS-1 832/13 cells left untreated (no label), or treated with H2O2 (1 or 0.1 mM H2O2) or DTT (0.1, 0.2, 0.5, 1, 2, 5, or 10 mM DTT). The MEROS-GFP ratio was determined using a plate reader. The data shown are mean±S.D. (n=3).
The ratio between fluorescence from excitation 473 nm versus 394 nm normalized to wild-type untreated cells is called the MEROS-GFP ratio. The MEROS-GFP ratio was determined using a fluorescent plate reader. In these experiments, the INS-1 832/13 cells were plated onto a 96-well plate at 50,000 cells/well, the cells treated with H2O2 or DTT at various concentrations for 30 minutes, and the fluorescence at excitation wavelength 473 nm and emission wavelength 510 nm (for reduced MEROS-GFP) or at excitation wavelength 394 nm and emission wavelength 510 nm (for oxidized MEROS-GFP) was measured. The MEROS-GFP ratio was determined after substraction of background signal.

[5] = test system: MEROS-GFP in INS-1 832/13 cells; experiment: Non-reducing SDS-PAGE of AMS-modified MEROS-GFP; format: cell-based, rat; conditions: 2 mM DTT, FIG. 13
Description: FIG. 13 is photograph of non-reducing polyacrylamide gel electrophoresis (PAGE) of 4-acetamido-4′-maleimidylstilbene-2, 2′-disulfonic acid (AMS)-modified MEROS-GFP in lysate from cells left untreated (left lane) or treated with 2 mM DTT (right lane). The lysates were either left untreated (−βME) (top) or were treated with β-mercaptoethanol (+βME) (bottom) prior to electrophoresis.
Additional experiments were performed to confirm that the MEROS-GFP ratio reflected changes in its redox state in vivo. In these experiments, the redox state of MEROS-GFP was monitored using non-reducing SDS-PAGE in combination with the thiol-alkylating reagent, 4-acetamido-4′-maleimidylstilbene-2, 2′-disulfonic acid (AMS). In these experiments, INS-1 832/13 cells left untreated or treated with 2 mM DTT, were lysed with 1× SDS-PAGE sample buffer containing 25 mM AMS with or without 2-β-mercaptoethanol, boiled at 95° C. for 10 minutes, electrophoresed using SDS-PAGE, and immunoblotted using an anti-GFP antibody.

[6] = test system: MEROS-GFP in INS-1 832/13 cells; experiment: Confocal microscopy of MEROS-GFP fluorescence; format: cell-based, rat; conditions: 2 mM DTT, FIG. 11
Description: FIG. 11 is a set of four confocal microscopy images of MEROS-GFP gathered using a 476-nm excitation wavelength (bottom two panels) or a 405-nm excitation wavelength (top two panels) in INS-1 832/13 cells treated with (right two panels) or without (left two panels) 2 mM DTT.

INS-1 832/13 cells = experiment: Percentage of reduced cells (MEROS-GFP ratio >2) by flow cytometry after fatty acids; format: cell-based, rat; conditions: 0.5 mM palmitate plus 0.5 mM oleic or linoleic acid, 24 hours, FIG. 30
Source text: The y-axis represents fluorescence following excitation using 488 nm and the x-axis represents fluorescence following excitation using 405 nm.
The data for cells treated with palmitate is shifted to the right.
The error bars indicate ±standard deviation (**p<0.01).

MANF [7] = experiment: MANF mRNA in mouse primary islets treated with thapsigargin (real-time PCR); format: cell-based; conditions: 0.5 μM thapsigargin, 6 hours, FIG. 3
Description: FIG. 3 is a graph showing the relative expression of MANF, WFS1, TXNIP, and CHOP mRNA in mouse primary islets cultured five days with 5 mM glucose (LG), 11 mM glucose (MG), or 25 mM glucose (HG), or five days with 5 mM glucose (LG) and 6 hours with 0.5 μM thapsigargin (TG). The data shown were generated using quantitative real-time PCR (n=3; S.D.).
(§1) Experiments were performed to determine if expression of soluble MANF is induced in pancreatic β-cells in response to endoplasmic reticulum stress. These experiments were performed using rodent pancreatic β-cell lines (INS-1 832/13 and MIN6), primary mouse and human islets, and two different chemical agents that induce endoplasmic reticulum stress (thapsigargin and tunicamycin). INS-1 832/13 cells were cultured in RPMI-1640 containing 10% fetal bovine serum, penicillin, streptomycin, sodium pyruvate, and 0.1% β-mercaptoethanol. Primary islets were obtained from Prodo, and plated into 6-well plates precoated with laminin V produced by 804G cells, and cultured in CMRL medium supplemented with fetal bovine serum, non-essential amino acids, sodium pyruvate, and antibiotics.
(§2) A second set of experiments were performed using human primary islets from two human donors.

MANF [8] = experiment: MANF protein (immunoblot) and mRNA (real-time PCR) in INS-1 832/13 cells treated with ER stress inducers; format: cell-based, rat; conditions: 24 hours; for MANF mRNA levels: 5 μM tunicamycin or 20 nM thapsigargin, FIG. 2
Description: FIG. 1 is an immunoblot showing the levels of MANF protein in concentrated medium from a culture of a rat pancreatic β-cell line (INS-1 832/13) or in lysate from the rat pancreatic β-cell line (INS-1 832/13) after no treatment or treatment with thapsigargin (50 nM) or tunicamycin (0.5 μg/mL) for 24 hours.
FIG. 2 is a graph showing the relative expression of MANF mRNA in a rat pancreatic β-cell line (INS-1 832/13) cultured under the following conditions: 11 mM glucose (24 hours); 25 mM glucose (24 hours); 25 mM glucose (48 hours); 25 mM glucose (72 hours); 11 mM glucose and 5 μM tunicamycin (TM) (24 hours); or 11 mM glucose and 20 nM thapsigargin (Tg) (24 hours). The data shown were generated using quantitative real-time PCR (n=3, S.D.).
as §1

MANF [9] = experiment: MANF mRNA and soluble MANF protein in human primary islets treated with thapsigargin; format: cell-based; conditions: thapsigargin 0.25 μM, 24 hours
Description: The data shown were generated using quantitative real-time PCR (n=3; S.D.).
In this experiment, human MANF was immunoprecipitated using a rabbit anti-human MANF antibody (Proteintech), and the same antibody was used to develop the immunoblot.
as §1, §2

O[C@H](CS)[C@H](O)CS (racemic) [DTT, dithiothreitol]
Ratio of fluorescence from excitation at 488 nm versus 405 nm (FACS) ([1]; DTT 0.2, 0.5, 10 mM, FIGS. 15 and 16): dose dependent increase
Median MEROS-GFP ratio (FACS) [1]: increased the median MEROS-GFP ratio in a dose-dependent manner
Time to reduction of the ER (MEROS-GFP ratio) [2]: ER could be reduced within a few minutes
Average MEROS-GFP ratio in the pilot screen [3]: 0.069 (S.D. =0.006)
MEROS-GFP ratio (plate reader) [4]: increased the MEROS-GFP ratio in a dose-dependent manner
Redox state of MEROS-GFP (AMS, non-reducing SDS-PAGE) [5]: fully reduced MEROS-GFP in vivo
MEROS-GFP fluorescence from 476 nm excitation [6]: significantly increased

OO [H2O2]
Median MEROS-GFP ratio (FACS) [1]: did not change the MEROS-GFP ratio
MEROS-GFP ratio (plate reader) [4]: did not change the MEROS-GFP ratio

CC(C)C[C@@H](C=O)NC(=O)[C@H](CC(C)C)NC(=O)[C@H](CC(C)C)NC(=O)OCc1ccccc1 [MG 132] (Cbz-Leu-Leu-Leu-aldehyde)
Median MEROS-GFP ratio (FACS) [1]: increased

C[C@H]1CCC/C=C/[C@@H]2C[C@H](O)C[C@H]2[C@H](O)/C=C/C(=O)O1 [brefeldin A]
Median MEROS-GFP ratio (FACS) [1]: increased

CCCCC/C=C\C/C=C\CCCCCCCC(=O)O [linoleic acid]
Palmitate-induced reduced ER (percentage of reduced cells) (INS-1 832/13 cells): significantly suppressed the ability of palmitate to create a reduced ER

CCCCCCCC/C=C\CCCCCCCC(=O)O [oleic acid]
Palmitate-induced reduced ER (percentage of reduced cells) (INS-1 832/13 cells): significantly suppressed the ability of palmitate to create a reduced ER

C/C=C(/C)C(=O)O[C@H]1C(C)=C2[C@H]([C@@H]1OC(=O)CCCCCCC)[C@@](C)(OC(C)=O)C[C@H](OC(=O)CCC)[C@@]1(O)[C@H]2OC(=O)[C@@]1(C)O [thapsigargin]
Median MEROS-GFP ratio (FACS) [1]: increased
MANF mRNA expression (MANF [7]): significant increase in MANF mRNA expression
MANF mRNA levels (MANF [8]): Elevated levels of MANF mRNA
Soluble MANF protein in the medium (MANF [8]; thapsigargin 50 nM, FIG. 1): detected in the medium
Soluble MANF protein in the extracellular medium (MANF [9]; FIGS. 5 and 6): production and release of soluble MANF protein into the extracellular medium
MANF mRNA expression (MANF [9]; two donors, FIG. 4): significant increase in MANF mRNA expression

human islet amyloid polypeptide (hIAPP): human islet amyloid polypeptide, physiological inducer of ER stress (KCNTATCATQRLANFLVHSSNNFGAILSSTNVGSNTY; not fully specified (C-terminus, bridges); cysteine pairing not given here; UniProt P10997 34-70, looked up)
Median MEROS-GFP ratio (FACS) [1]: increased

tunicamycin
Median MEROS-GFP ratio (FACS) [1]: increased
MANF mRNA levels (MANF [8]): Elevated levels of MANF mRNA
